System: participants with chronic migraine
Experiment: Same phase 3 study: patient-reported outcomes (MSQ v2.1, AIM-D, HIT-6, WPAI, PGI-C, treatment satisfaction, EQ-5D-5L)
Format: in vivo, human
Conditions: for Change from Baseline in HIT-6 total score at Week 12, LS Mean / Change from Baseline in HIT-6 total score at Week 12, LSMD Atogepant vs. Placebo / Change from Baseline in MSQ v2.1 Role Function - Restrictive Domain Score at Week 12, LS Mean / Change from Baseline in MSQ v2.1 Role Function - Restrictive Domain Score at Week 12, LSMD Atogepant vs. Placebo: Off-Treatment Hypothetical Estimand population
Description: The MSQ v2.1 is a 14-item questionnaire designed to measure health-related quality of life impairments attributed to migraine in the past 4 weeks. It is divided into three domains: Role Function Restrictive assesses how migraines limit one's daily social and work-related activities; Role Function Preventive assesses how migraines prevent these activities; and the Emotional Function domain assesses the emotions associated with migraine. Participants respond to items using a 6-point scale ranging from “none of the time” to “all of the time.” Raw dimension scores are computed as a sum of item responses and rescaled to a 0 to 100 scale, where higher scores indicate better quality of life.
The AIM-D (Activity Impairment in Migraine — Diary) is an 11-function daily diary measure that assesses the impact of migraine. It is comprised of two domains that evaluate performance of daily activities (PDA: 7 items) and physical impairment (PI: 4 items). […] The AIM-D was developed as an electronic daily diary with the same set of questions administered in headache and non-headache versions. Raw domain scores are rescaled to a 0 to 100 scale, where higher scores indicate greater impact of migraine.
The HIT-6 (Headache Impact Test) is a 6-question assessment used to measure the impact headaches have on a participant's ability to function on the job, at school, at home, and in social situations. It assesses the effect that headaches have on normal daily life and the participant's ability to function. Responses are based on frequency using a 5-point scale ranging from “never” to “always.” The HIT-6 total score, which ranges from 36 to 78, is the sum of the responses—each of which is assigned a score ranging from 6 points (never) to 13 points (always)—with higher scores indicating larger impact due to headache. Yang et al., “Validation of the Headache Impact Test (HIT-6™) across episodic and chronic migraine”, Cephalalgia, 2011 February; 31(3): 357−367.
Secondary endpoints included change from baseline in mean monthly headache days across the 12 week treatment period; change from baseline in mean monthly acute medication use days across the 12-week treatment period; at least a 50% reduction in mean monthly migraine days across the 12-week treatment period; change from baseline in MSQ v2.1 Role Function-Restrictive domain score at week 12; change from baseline in mean AIM-D monthly functioning and activity impairment score across the 12-week treatment period; and change from baseline in HIT-6 total score at week 12.
FIG. 8 and Table 5 show the change from baseline in AIM-D Performance of Daily Activities at Weeks 1-4, 5-8, and 9-12 and across 12 weeks. FIG. 9 and Table 6 show change from baseline in WPAI Overall Work Productivity Loss at Weeks 1-4, 5-8, and 9-12. […] A graphical approach with weighted Bonferroni test procedure was used to control the overall type I error rate at the 2-sided α=0.05 level for key secondary endpoint comparisons between each atogepant dose vs placebo. For exploratory endpoints, nominal P values were provided without adjusting for multiplicity.
Patient-reported outcome (PRO) measures included the Performance of Daily Activities (PDA) and Physical Impairment (PI) domains of the Activity Impairment in Migraine-Diary (AIM-D), and the 5-level European Quality of Life-5 Dimension (EQ-5D-5L) descriptive system and visual analogue scale (VAS), implemented via daily diary. Scores in each domain were transformed to a 0-100 scale with higher scores indicating a greater burden from migraine. Changes in PDA and PI scores and the proportion of participants achieving clinically meaningful within-patient change in the PDA domain (≥12.5 points) and PI domain (≥10 points) were compared between participants who received atogepant vs placebo. EQ-5D-5L measures 5 dimensions of QOL, including mobility, self-care, usual activities, pain/discomfort, and anxiety/depression. […]

[1] = 30 mg BID, week 12, mITT, listed as atogepant
[2] = 60 mg QD, week 12, mITT, listed as atogepant
[3] = 60 mg, within the first 2 weeks
[4] = both doses (30 mg BID, 60 mg QD), all time points

Q: Which “Change from Baseline in HIT-6 total score at Week 12, LS Mean” value (30 mg BID) does the source give for C[C@@H]1[C@H](c2c(F)ccc(F)c2F)C[C@H](NC(=O)c2cnc3c(c2)C[C@@]2(C3)C(=O)Nc3ncccc32)C(=O)N1CC(F)(F)F [Atogepant, (S)—N—((3S,5S,6R)-6-methyl-2-oxo-1-(2,2,2-trifluoroethyl)-5-(2,3,6-trifluorophenyl)piperidin-3-yl)-2′-oxo-1′,2′,5,7-tetrahydrospiro[cyclopenta[b]pyridine-6,3′-pyrrolo[2,3-b]pyridine]-3-carboxamide] here?
A: −8.47

Q: What about the “Change from Baseline in HIT-6 total score at Week 12, LSMD Atogepant vs. Placebo” value (30 mg BID) of the same molecule?
A: −3.30

Q: And the “Change from Baseline in MSQ v2.1 Role Function - Restrictive Domain Score at Week 12, LS Mean” value (30 mg BID)?
A: 24.74

Q: And the “Change from Baseline in MSQ v2.1 Role Function - Restrictive Domain Score at Week 12, LSMD Atogepant vs. Placebo” value (30 mg BID)?
A: 7.43

Q: And the “Change from Baseline in WPAI Overall Work Productivity Loss, LSMD vs placebo” value (30 mg BID, Week 4)?
A: −12.69

Q: And the “Change from Baseline in WPAI Overall Work Productivity Loss, LSMD vs placebo” value (30 mg BID, Week 8)?
A: −8.61

Q: And the “Change from Baseline in AIM-D Performance of Daily Activities, LSMD vs placebo” value (“Change … of Daily Activities, LSMD vs placebo” for short) (30 mg BID, Weeks 1-4)?
A: −5.44

Q: What about the “Change … of Daily Activities, LSMD vs placebo” value (30 mg BID, Weeks 5-8) of the same molecule?
A: −4.75

Q: What about the “Change … of Daily Activities, LSMD vs placebo” value (30 mg BID, Weeks 9-12) of the same molecule?
A: −4.36

Q: And the “Change from baseline in MSQ v2.1 role function restrictive domain score at week 12, LS Mean” value (30 mg BID, mITT)?
A: 25.15

Q: And the “Change from baseline in MSQ v2.1 role function restrictive domain score at week 12, LSMD Atogepant vs. Placebo” value (30 mg BID, mITT)?
A: 7.96

Q: And the “Change from baseline in mean monthly performance of daily activities domain score of the AIM-D across the 12-week treatment period, LS Mean” value (30 mg BID, mITT)?
A: −14.29

Q: And the “Change from baseline in mean monthly performance of daily activities domain score of the AIM-D across the 12-week treatment period, LSMD Atogepant vs. Placebo” value (30 mg BID, mITT)?
A: −4.85

Q: And the “Change from baseline in mean monthly physical impairment domain score of the AIM-D across the 12-week treatment period, LS Mean” value (30 mg BID, mITT)?
A: −12.11

Q: What about the “Change from baseline in mean monthly physical impairment domain score of the AIM-D across the 12-week treatment period, LSMD Atogepant vs. Placebo” value (30 mg BID, mITT) of the same molecule?
A: −4.19

Q: And the “Change from Baseline in WPAI Overall Work Productivity Loss, LSMD vs placebo” value (30 mg BID, week 12)?
A: −7.94

Q: And the “MSQ v2.1 Emotional Function domain score change from baseline, LSMD vs placebo” value (30 mg BID, week 12)?
A: 6.36

Q: And the “MSQ v2.1 Role Function-Preventive domain score change from baseline, LSMD vs placebo” value (30 mg BID, week 12)?
A: 8.10

Q: What about the PGI-C responders (30 mg BID, week 12, mITT) of the same molecule?
A: 153/239

Q: What about the “PGI-C responders (much better or very much better), Percentage” value (from here on “PGI-C responders … Percentage”) (30 mg BID, week 12, mITT) of the same molecule?
A: 64.0%

Q: What about the “PGI-C responders, OR (95% CI) vs placebo” value (30 mg BID, week 12, mITT) of the same molecule?
A: 3.36 (2.29, 4.94)

Q: What about the “Satisfaction with study medication (satisfied or extremely satisfied), Percentage” value (from here on “Satisfaction with study medication … Percentage”) (30 mg BID, week 12, mITT) of the same molecule?
A: 64.6%

Q: What about the “Satisfaction with study medication responders” value (30 mg BID, week 12, mITT) of the same molecule?
A: 148/229

Q: What about the “Satisfaction with study medication, OR (95% CI) vs placebo” value (30 mg BID, week 12, mITT) of the same molecule?
A: 2.67 (1.82, 3.91)

Q: And the “PGI-C responders … Percentage” value [1]?
A: 64.0%

Q: What about the “Satisfaction with study medication … Percentage” value [1] of the same molecule?
A: 64.6%

Q: What about the “Change from Baseline in HIT-6 total score at Week 12, LS Mean” value (60 mg QD) of the same molecule?
A: −7.83

Q: What about the “Change from Baseline in HIT-6 total score at Week 12, LSMD Atogepant vs. Placebo” value (60 mg QD) of the same molecule?
A: −2.66

Q: What about the “Change from Baseline in MSQ v2.1 Role Function - Restrictive Domain Score at Week 12, LS Mean” value (60 mg QD) of the same molecule?
A: 23.09

Q: What about the “Change from Baseline in MSQ v2.1 Role Function - Restrictive Domain Score at Week 12, LSMD Atogepant vs. Placebo” value (60 mg QD) of the same molecule?
A: 5.78

Q: What about the “Change from Baseline in WPAI Overall Work Productivity Loss, LSMD vs placebo” value (60 mg QD, Week 4) of the same molecule?
A: −15.26

Q: And the “Change from Baseline in WPAI Overall Work Productivity Loss, LSMD vs placebo” value (60 mg QD, Week 8)?
A: −11.33

Q: And the “Change … of Daily Activities, LSMD vs placebo” value (60 mg QD, Weeks 1-4)?
A: −4.44

Q: What about the “Change … of Daily Activities, LSMD vs placebo” value (60 mg QD, Weeks 5-8) of the same molecule?
A: −3.59

Q: And the “Change … of Daily Activities, LSMD vs placebo” value (60 mg QD, Weeks 9-12)?
A: −2.11

Q: And the “Change from baseline in MSQ v2.1 role function restrictive domain score at week 12, LS Mean” value (60 mg QD, mITT)?
A: 23.33

Q: What about the “Change from baseline in MSQ v2.1 role function restrictive domain score at week 12, LSMD Atogepant vs. Placebo” value (60 mg QD, mITT) of the same molecule?
A: 6.15

Q: What about the “Change from baseline in mean monthly performance of daily activities domain score of the AIM-D across the 12-week treatment period, LS Mean” value (60 mg QD, mITT) of the same molecule?
A: −12.82

Q: What about the “Change from baseline in mean monthly performance of daily activities domain score of the AIM-D across the 12-week treatment period, LSMD Atogepant vs. Placebo” value (60 mg QD, mITT) of the same molecule?
A: −3.38

Q: And the “Change from baseline in mean monthly physical impairment domain score of the AIM-D across the 12-week treatment period, LS Mean” value (60 mg QD, mITT)?
A: −10.63

Q: What about the “Change from baseline in mean monthly physical impairment domain score of the AIM-D across the 12-week treatment period, LSMD Atogepant vs. Placebo” value (60 mg QD, mITT) of the same molecule?
A: −2.71

Q: What about the “participants achieving clinically relevant reduction with AIM-D PDA of ≥12.5” value (60 mg QD, week 1) of the same molecule?
A: 42.9%

Q: What about the “participants achieving clinically relevant reduction with AIM-D PI of ≥10” value (60 mg QD, week 1) of the same molecule?
A: 43.7%

Q: And the “AIM-D PDA change from baseline, LSMD vs placebo” value (60 mg QD, week 1, mITT)?
A: −5.83

Q: What about the “AIM-D PI change from baseline, LSMD vs placebo” value (60 mg QD, week 1, mITT) of the same molecule?
A: −4.12

Q: What about the “Change from Baseline in WPAI Overall Work Productivity Loss, LSMD vs placebo” value (60 mg QD, week 12) of the same molecule?
A: −9.64

Q: And the “MSQ v2.1 Emotional Function domain score change from baseline, LSMD vs placebo” value (60 mg QD, week 12)?
A: 6.81

Q: And the “MSQ v2.1 Role Function-Preventive domain score change from baseline, LSMD vs placebo” value (60 mg QD, week 12)?
A: 6.86

Q: And the PGI-C responders (60 mg QD, week 12, mITT)?
A: 130/246

Q: And the “PGI-C responders … Percentage” value (60 mg QD, week 12, mITT)?
A: 52.8%

Q: And the “PGI-C responders, OR (95% CI) vs placebo” value (60 mg QD, week 12, mITT)?
A: 2.16 (1.48, 3.15)

Q: And the “Satisfaction with study medication … Percentage” value (60 mg QD, week 12, mITT)?
A: 59.2%

Q: And the “Satisfaction with study medication responders” value (60 mg QD, week 12, mITT)?
A: 138/233

Q: And the “Satisfaction with study medication, OR (95% CI) vs placebo” value (60 mg QD, week 12, mITT)?
A: 2.16 (1.49, 3.15)

Q: And the “PGI-C responders … Percentage” value [2]?
A: 52.8%

Q: What about the “Satisfaction with study medication … Percentage” value [2] of the same molecule?
A: 59.2%

Q: What about the “EQ-5D-5L VAS score, LSMD vs placebo” value [3] of the same molecule?
A: 4.47

Q: And the “mean EQ-5D-5L descriptive system score, LSMD vs placebo” value [3]?
A: 0.04

Q: And the “proportion meeting HIT-6 responder criteria (score reduction ≥5 points) vs placebo” value (all time points and doses, nominal P<0.001)?
A: nominally significantly greater

Q: What about the “WPAI activity impairment vs. placebo” value [4] of the same molecule?
A: Nominally significant improvements

Q: What about the “WPAI presenteeism vs. placebo” value [4] of the same molecule?
A: Nominally significant improvements

Q: What about the “WPAI absenteeism vs. placebo” value (both doses (30 mg BID, 60 mg QD), weeks 4 and 12) of the same molecule?
A: Nominally significant improvements

Q: And the “HIT-6 scores vs placebo” value (both doses, weeks 4 and 8, nominal P<0.001)?
A: nominally significant improvements

Reference: US20230321055A1, “PREVENTIVE TREATMENT OF MIGRAINE” (priority 2022, published 2023)
